For test [1], the system named is Raji. The test can be described thus: In vitro cytotoxicity against Raji cells from human lymphoma. In kind it is functional, cell-based.
Test [2] has as its system LFCl2A. Description: In vitro cytotoxicity against LFCL2A cells from rat hepatocarcinoma. In kind it is functional, cell-based.
Where [3] appears, read: Rattus norvegicus, LFCl2A, read-out: IC50.

Each structure is given as a SMILES string. Where “and” joins values, the source holds several entries; their conditions need not be identical. Identical values can stand only once.

The text below walks through data of ChEMBL document CHEMBL1159168, “Unsaturated epoxy-C-glycosides. A new class of antitumor compounds with DNA cleavage properties” (Bioorg Med Chem Lett, 1994).

As for `CC/C=C\C/C=C\C/C=C\C/C=C\C/C=C\C/C=C\CCC(=O)OC[C@H]1O[C@H](C2CCCC=C2C)C=C[C@@]12CO2` (stereo in doubt; 16), the half-maximal inhibitory concentration (IC50) in test [1] (Homo sapiens, Raji) is 58 µM and 0.106 µg/mL.

In turn, `CCCCC/C=C\C/C=C\C/C=C\C/C=C\CCCC(=O)OC[C@H]1O[C@H](C2CCCC=C2C)C=C[C@@]12CO2` (stereo in doubt; 18) returned an IC50 in test [1] (raji) of 147 µM.

For the molecule `C[C@@H]1O[C@@H](CC2=CCCCC2)C=C[C@@]12CO2`, the values for the IC50 in test [2] (setting [3]) and in test [2] (lfcl2a) were 155 µM and 34.3 µg/mL, respectively.

On to `CC1=CCCCC1[C@@H]1C=C[C@@]2(CO2)[C@@H](CO)O1` (stereo not given in full), for which, in test [1] (Homo sapiens, Raji), the half-maximal inhibitory concentration (IC50) was 255 µM and 60.3 µg/mL.

For the molecule `C[C@@H]1O[C@@H](CC2=CCCCC2)C=C[C@]12CO2`, the IC50 in test [2] (setting [3]) was 128 µM; in test [2] (lfcl2a) it was 28.3 µg/mL.

As for `CCCCC/C=C\C/C=C\C/C=C\C/C=C\CCCC(=O)OC[C@H]1O[C@H](C2CCCC=C2C)C=C[C@@]12CO2` (stereo in doubt; 17), in test [1] (raji), 66 µM corresponded to half-maximal inhibition (IC50).

Regarding `CC/C=C\C/C=C\C/C=C\C/C=C\C/C=C\C/C=C\CCC(=O)OC[C@H]1O[C@H](C2CCCC=C2C)C=C[C@@]12CO2` (stereo in doubt; 15), the IC50 in test [1] (raji) amounted to 62 µM.

`O=C(O)CCCc1ccc(N(CCCl)CCCl)cc1` [CHLORAMBUCIL]: in test [1] (Homo sapiens, Raji), the midpoint of inhibition, the IC50, lay at 298 µM.

As usually defined, the IC50 is the concentration needed to halve the response being measured.
